# From patent US12319695B2, “Sulfonamide derivative with fused pyrimidine skeleton, having epidermal growth factor receptor mutation inhibitory effect” (HANMI PHARM. CO., LTD., priority 2018, dated 2025)
# System: Ba/F3 EGFR del19/T790M/C797S cells
# Test: Ba/F3 EGFR del19/T790M/C797S cell growth inhibition test (CellTiter-Glo, 72 hours);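 also: compounds tested in tenfold steps from 10 µM down to 0.1 nM, with luminescence read on a microplate reader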
# Assay type: cell-based
# Settings: Ba/F3 cell line overexpressing EGFR del19/T790M/C797S, 72 hours, CellTiter-Glo; read-out: Ba/F3 EGFR del19/T790M/C797S cells, GI50
# Method: Specifically, the cell line stored in a liquid nitrogen tank was taken out, rapidly dissolved at 37° C., and thereafter centrifuged to remove the cryopreservation medium. The recovered cell pellets were well mixed in a culture medium, put into a culture flask, and passaged under conditions of 37° C. and 5% carbon dioxide to stabilize the cells to the logarithmic growth phase. Thereafter, cells were taken from the flask, centrifuged to remove the culture medium, washed with Dulbecco's phosphate buffered saline (DPBS), and then centrifuged again to remove DPBS, and then diluted with a culture medium to have 1×10^5 cells/ml. The diluted cells were dispensed into a 96-well plate at 100 μl per well. […] The DMSO solution containing each compound was diluted with a culture medium to a concentration of 30 μM, and then tenfold serial dilution was used to prepare a solution diluted upto 0.3 nM (in order to reach a final DMSO concentration of 1% or less).
# 50 μl of a test solution of each compound was added each time to the 96-well plate in which the cells were dispensed, thus reaching a final concentration of 10 μM to 0.1 nM in 150 μl per well. The cells treated with the test solution were cultured under conditions of 37° C. and 5% carbon dioxide for 72 hours. After the 96-well plate in which the cells were cultured was acclimated to room temperature for 30 minutes, CellTiter-Glo® Luminescent Cell Assay Reagent (CTG, Promega) was dispensed at 50 μl per well. After stabilizing luminescence signals for 10 minutes, the luminescence intensity was measured with a microplate reader.
# The GI50 value of each compound was calculated using nonlinear regression of GraphPad Prism; log[inhibitor] vs. normalized response analysis.
row,GI50 [nM],Compound
1,371,"CN(c1ccccc1Nc1nc(Nc2ccc(N3CCCCC3)c(F)c2)nc2[nH]ccc12)S(C)(=O)=O [Example 22, N-(2-((2-((4-(piperidin-1-yl)-3-fluorophenyl)amino)-7H-pyrrolo[2,3-d]pyrimidine-4-yl)amino)phenyl)-N-methylmethanesulfonamide]"
2,76,"CN(c1ccccc1Nc1nc(Nc2ccc(N3CCNCC3)c(F)c2)nc2[nH]ccc12)S(C)(=O)=O [Example 23, N-(2-((2-((3-fluoro-4-(piperazin-1-yl)phenyl)amino)-7H-pyrrolo[2,3-d]pyrimidine-4-yl)amino)phenyl)-N-methylmethanesulfonamide]"
3,47,"CN1CCC(Nc2ccc(Nc3nc(Nc4ccccc4N(C)S(C)(=O)=O)c4cc[nH]c4n3)cc2F)CC1 [Example 24, N-(2-((2-((3-fluoro-4-((1-methylpiperidin-4-yl)amino)phenyl)amino)-7H-pyrrolo[2,3-d]pyrimidine-4-yl)amino)phenyl)-N-methylmethanesulfonamide]"
4,22,"CN1CCN(c2c(F)cc(Nc3nc(Nc4ccccc4N(C)S(C)(=O)=O)c4cc[nH]c4n3)cc2F)CC1 [Example 25, N-(2-((2-((3,5-difluoro-4-(4-methylpiperazin-1-yl)phenyl)amino)-7H-pyrrolo[2,3-d]pyrimidine-4-yl)amino)phenyl)-N-methylmethanesulfonamide]"
5,6,"CN1CCN(c2ccc(Nc3nc(Nc4ccccc4N(C)S(C)(=O)=O)c4cc[nH]c4n3)c(F)c2F)CC1 [Example 27, N-(2-((2-((2,3-difluoro-4-(4-methylpiperazin-1-yl)phenyl)amino)-7H-pyrrolo[2,3-d]pyrimidine-4-yl)amino)phenyl)-N-methylmethanesulfonamide]"
6,7,"CN(c1ccccc1Nc1nc(Nc2ccc(N3CCN(CCO)CC3)c(F)c2F)nc2[nH]ccc12)S(C)(=O)=O [Example 28, N-(2-((2-((2,3-difluoro-4-(4-(2-hydroxyethyl)piperazin-1-yl)phenyl)amino)-7H-pyrrolo[2,3-d]pyrimidine-4-yl)amino)phenyl)-N-methylmethanesulfonamide]"
7,626,"CN1CCN(c2ccc(Nc3nc(Nc4ccccc4N(C)S(C)(=O)=O)c4cc[nH]c4n3)nc2)CC1 [Example 29, N-methyl-N-(2-((2-((5-(4-methylpiperazin-1-yl)pyridin-2-yl)amino)-7H-pyrrolo[2,3-d]pyrimidine-4-yl)amino)phenyl)methanesulfonamide]"
8,9.4,"CN1CCN(c2ccc(Nc3nc(Nc4ccccc4N(C)S(C)(=O)=O)c4cc[nH]c4n3)cn2)CC1 [Example 30, N-methyl-N-(2-((2-((6-(4-methylpiperazin-1-yl)pyridin-3-yl)amino)-7H-pyrrolo[2,3-d]pyrimidine-4-yl)amino)phenyl)methanesulfonamide]"
9,10,"CN1CCC2(CC1)CCN(c1ccc(Nc3nc(Nc4ccccc4N(C)S(C)(=O)=O)c4cc[nH]c4n3)cc1F)CC2 [Example 31, N-(2-((2-((3-fluoro-4-(9-methyl-3,9-diazaspiro[5.5]undecan-3-yl)phenyl)amino)-7H-pyrrolo[2,3-d]pyrimidine-4-yl)amino)phenyl)-N-methylmethanesulfonamide]"
10,11,"CCN1CCC2(CC1)CCN(c1ccc(Nc3nc(Nc4ccccc4N(C)S(C)(=O)=O)c4cc[nH]c4n3)cc1F)CC2 [Example 32, N-(2-((2-((4-(9-ethyl-3,9-diazaspiro[5.5]undecan-3-yl)-3-fluorophenyl)amino)-7H-pyrrolo[2,3-d]pyrimidine-4-yl)amino)phenyl)-N-methanesulfonamide]"
11,31,"CN1CCC2(CCN(c3ccc(Nc4nc(Nc5ccccc5N(C)S(C)(=O)=O)c5cc[nH]c5n4)cc3F)CC2)C1 [Example 33, N-(2-((2-((3-fluoro-4-(2-methyl-2,8-diazaspiro[4.5]decan-8-yl)phenyl)amino)-7H-pyrrolo[2,3-d]pyrimidine-4-yl)amino)phenyl)-N-methylmethanesulfonamide]"
12,6,"CN1CC2(CCN(c3ccc(Nc4nc(Nc5ccccc5N(C)S(C)(=O)=O)c5cc[nH]c5n4)cc3F)CC2)C1 [Example 34, N-(2-((2-((3-fluoro-4-(2-methyl-2,7-diazaspiro[3.5]nonan-7-yl)phenyl)amino)-7H-pyrrolo[2,3-d]pyrimidine-4-yl)amino)phenyl)-N-methylmethanesulfonamide]"
13,185,"CN1CCC2(CC1)CCN(c1ccc(Nc3nc(Nc4ccccc4N(C)S(C)(=O)=O)c4cc[nH]c4n3)cc1F)C2 [Example 35, N-(2-((2-((3-fluoro-4-(8-methyl-2,8-diazaspiro[4.5]decan-2-yl)phenyl)amino)-7H-pyrrolo[2,3-d]pyrimidine-4-yl)amino)phenyl)-N-methylmethanesulfonamide]"
14,95,"CN1CCC2(CC1)CN(c1ccc(Nc3nc(Nc4ccccc4N(C)S(C)(=O)=O)c4cc[nH]c4n3)cc1F)C2 [Example 37, N-(2-((2-((3-fluoro-4-(7-methyl-2,7-diazaspiro[3.5]nonan-2-yl)phenyl)amino)-7H-pyrrolo[2,3-d]pyrimidine-4-yl)amino)phenyl)-N-methylmethanesulfonamide]"
15,25,"CN1CCC2(C1)CN(c1ccc(Nc3nc(Nc4ccccc4N(C)S(C)(=O)=O)c4cc[nH]c4n3)cc1F)C2 [Example 38, N-(2-((2-((3-fluoro-4-(6-methyl-2,6-diazaspiro[3.4]octan-2-yl)phenyl)amino)-7H-pyrrolo[2,3-d]pyrimidine-4-yl)amino)phenyl)-N-methylmethanesulfonamide]"
16,67,"CN(c1ccccc1Nc1nc(Nc2ccc(N3CCC4(CCOCC4)CC3)c(F)c2)nc2[nH]ccc12)S(C)(=O)=O [Example 39, N-(2-((2-((3-fluoro-4-(3-oxa-9-diazaspiro[5.5]undecan-9-yl)phenyl)amino)-7H-pyrrolo[2,3-d]pyrimidine-4-yl)amino)phenyl)-N-methylmethanesulfonamide]"
17,65,"CN(c1ccccc1Nc1nc(Nc2ccc(N3CCC4(CC3)COC4)c(F)c2)nc2[nH]ccc12)S(C)(=O)=O [Example 40, N-(2-((2-((3-fluoro-4-(2-oxa-7-azaspiro[3.5]nonan-7-yl)phenyl)amino)-7H-pyrrolo[2,3-d]pyrimidine-4-yl)amino)phenyl)-N-methylmethanesulfonamide]"
18,141,"CN1C[C@@H]2CN(c3ccc(Nc4nc(Nc5ccccc5N(C)S(C)(=O)=O)c5cc[nH]c5n4)cc3F)C[C@@H]2C1 [Example 41, N-(2-((2-((3-fluoro-4-((3aR,6aS)-5-methylhexahydropyrrolo[3,4-c]pyrrole-2(1H)-yl)phenyl)amino)-7H-pyrrolo[2,3-d]pyrimidine-4-yl)amino)phenyl)-N-methylmethanesulfonamide]"
19,37,"CCN(c1ccccc1Nc1nc(Nc2ccc(N3CCN(C)CC3)c(F)c2)nc2[nH]ccc12)S(C)(=O)=O [Example 43, N-ethyl-N-(2-((2-((3-fluoro-4-(4-methylpiperazin-1-yl)phenyl)amino)-7H-pyrrolo[2,3-d]pyrimidine-4-yl)amino)phenyl)methanesulfonamide]"
20,72,"CC(C)N(c1ccccc1Nc1nc(Nc2ccc(N3CCN(C)CC3)c(F)c2)nc2[nH]ccc12)S(C)(=O)=O [Example 44, N-(2-((2-((3-fluoro-4-(4-methylpiperazin-1-yl)phenyl)amino)-7H-pyrrolo[2,3-d]pyrimidine-4-yl)amino)phenyl)-N-isopropylmethanesulfonamide]"
21,64,"CN1CCN(c2ccc(Nc3nc(Nc4ccccc4N(C4CC4)S(C)(=O)=O)c4cc[nH]c4n3)cc2F)CC1 [Example 45, N-cyclopropyl-N-(2-((2-((3-fluoro-4-(4-methylpiperazin-1-yl)phenyl)amino)-7H-pyrrolo[2,3-d]pyrimidine-4-yl)amino)phenyl)methanesulfonamide]"
22,16,"CCS(=O)(=O)N(C)c1ccccc1Nc1nc(Nc2ccc(N3CCN(C)CC3)c(F)c2)nc2[nH]ccc12 [Example 46, N-(2-((2-((3-fluoro-4-(4-methylpiperazin-1-yl)phenyl)amino)-7H-pyrrolo[2,3-d]pyrimidine-4-yl)amino)phenyl)-N-methylethanesulfonamide]"
23,49,"CC(C)S(=O)(=O)N(C)c1ccccc1Nc1nc(Nc2ccc(N3CCN(C)CC3)c(F)c2)nc2[nH]ccc12 [Example 47, N-(2-((2-((3-fluoro-4-(4-methylpiperazin-1-yl)phenyl)amino)-7H-pyrrolo[2,3-d]pyrimidine-4-yl)amino)phenyl)-N-methylpropan-2-sulfonamide]"
24,30,"CN1CCN(c2ccc(Nc3nc(Nc4ccccc4N(C)S(=O)(=O)C4CC4)c4cc[nH]c4n3)cc2F)CC1 [Example 48, N-(2-((2-((3-fluoro-4-(4-methylpiperazin-1-yl)phenyl)amino)-7H-pyrrolo[2,3-d]pyrimidine-4-yl)amino)phenyl)-N-methylcyclopropanesulfonamide]"
25,26,"CCN1CCN(c2ccc(Nc3nc(Nc4ccccc4N(CC)S(C)(=O)=O)c4cc[nH]c4n3)cc2F)CC1 [Example 50, N-ethyl-N-(2-((2-((4-(4-ethylpiperazin-1-yl)-3-fluorophenyl)amino)-7H-pyrrolo[2,3-d]pyrimidine-4-yl)amino)phenyl)methanesulfonamide]"
26,25,"CCN1CCN(c2ccc(Nc3nc(Nc4ccccc4N(C)S(=O)(=O)CC)c4cc[nH]c4n3)cc2F)CC1 [Example 51, N-(2-((2-((4-(4-ethylpiperazin-1-yl)-3-fluorophenyl)amino)-7H-pyrrolo[2,3-d]pyrimidine-4-yl)amino)phenyl)-N-methylethanesulfonamide]"
27,119,CCN1CCN(c2ccc(Nc3nc(Nc4ccccc4N(CC)S(=O)(=O)CC)c4cc[nH]c4n3)cc2F)CC1 [Example 52]
28,7.9,"CN1CCN(c2ccc(Nc3nc(Nc4ccccc4N(C)S(C)(=O)=O)c4c(Cl)c[nH]c4n3)cc2F)CC1 [Example 57, N-(2-((5-chloro-2-((3-fluoro-4-(4-methylpiperazin-1-yl)phenyl)amino)-7H-pyrrolo[2,3-d]pyrimidine-4-yl)amino)phenyl)-N-methylmethanesulfonamide]"
